Measurements: PubChem BioAssay AID1918993 (Molecular Pharmacology Branch, DTP, NCI, 2023)

Test system: 233499-124-R-J3-PDC complex spheroid growth
Test: Anticancer human tumor 233499-124-R-J3-PDC patient-derived colon adenocarcinoma cell line growth inhibition [AhR]
Details: for IC50: curve of first compound; for viability, T/C: stronger effect = lower value; active = viability on the fitted dose curve at most 10% of control; inactive = the rest
Source text: Multicellular complex tumor spheroid response to aryl hydrocarbon receptor antagonists in combination with a variety of drugs and investigational agents in selected tumor cell lines
The current study was undertaken to assess response to aryl hydrocarbon receptor antagonists in combination with standard-of-care drugs and investigational agents in solid tumor complex spheroid models. Complex spheroids include a stromal component modeled by human endothelial cells (HUVEC) and fibroblasts modeled by human mesenchymal stem cells (MSCs). The concentration ranges selected for each drug and investigational agent were based upon clinically achievable concentrations if the clinical Cmax of the agent was known.
Compounds. The drugs and investigational agents: BAY 2416964 (NSC825713), GNF351 (NSC835774), CH-223191 (NSC835775), CPI-455 (NSC825282), aza-TdCyd (NSC777586), decitabine (NSC127716), belinostat (NSC758774), entinostat (NSC756642), pevonedistat (NSC761192), tazemetostat (NSC777109), talazoparib (NSC765396), olaparib (NSC753686), selinexor (NSC780203), nedisertib (M3814, NSC802822), bortezomib (NSC756655), venetoclax (NSC766270), doxorubicin (NSC123127), elimusertib (BAY189344, NSC800525), ceralasertib (AZD6738, NSC777638), TAK-243 (NSC785004), alisertib (NSC759677), etoposide (NSC141540), topotecan (NSC609699), eribulin (NSC707389), gemcitabine (NSC613327), carboplatin (NSC241240), cisplatin (NSC119875), and SN-38 (NSC673596) were obtained from the National Cancer Institute (NCI) Developmental Therapeutics Program Chemical Repository (32). The FDA-approved anticancer drug set is available from the Developmental Therapeutics Program at https://dtp.cancer.gov/organization/dscb/obtaining/available plates.htm. […] The stock solutions were prepared in dimethyl sulfoxide (DMSO, Sigma-Aldrich, St. Louis, MO, cat. D2650), except for the platinum compounds which were prepared in saline (Quality Biological, Gaithersburg, MD, cat. 114-055-101), at 800-fold the tested concentration and stored at -70 degrees C prior to their use. All drugs and investigational agents were tested over a range starting from a high concentration at or near the clinical Cmax and decreasing in half-log increments. If the clinical Cmax for an agent had not been determined, the highest concentration tested was 10 microM (Table 1).
Cell Culture. All cells were maintained in an incubator at 37 degrees C and 5% CO2 with 95% humidity. The PDC lines were cultured according to standard operating procedures established by the NCI PDMR (https://pdmr.cancer.gov). Briefly, all PDCs were thawed and cultured in Matrigel-coated flasks prepared with a working solution of 1X Ham's F-12 nutrient mix, without supplementation (Invitrogen, Waltham, MA, cat. 11765054), 100 U/mL penicillin-streptomycin (Invitrogen, cat. 15140122), and 2.5% Matrigel (Corning Inc., Corning, NY, cat. 354248) for the first three passages. All PDCs were cultured in complete DMEM/F-12 media containing advanced DMEM/F-12 (Invitrogen, cat. 12634028), 4.9% defined fetal bovine serum, heat inactivated (HyClone Laboratories Inc., Logan, UT, cat. SH30070.03HI), 389 ng/mL hydrocortisone (Sigma-Aldrich, cat. H4001), 9.7 ng/mL human EGF recombinant protein (Invitrogen, cat. PHG0313), 23.4 microg/mL adenine (Sigma-Aldrich, cat. A2786), 97.3 U/mL penicillin-streptomycin (Invitrogen, cat. 15140122), 1.9 mM L-glutamine (Invitrogen, cat. 25030081), and 9.7 microM Y-27632 dihydrochloride (Tocris Bioscience, Bristol, United Kingdom, cat. 1254). The PDCs were cultured in complete DMEM/F12 media without 10 microM Y-27632 dihydrochloride for at least two passages prior to the screen. The established cell lines NCI-H1341 and […] were cultured in DMEM/F-12, HEPES (Invitrogen, cat. 11330032), 5% defined fetal bovine serum (HyClone Laboratories Inc., cat. SH30070.03), ITS premix universal culture supplement [insulin (5 microg/mL), transferrin (5 microg/mL), and selenious acid (5 ng/mL)] […]

[1] = second compound 0.1 µM, first compound 0.0316 µM
[2] = second compound 0.1 µM, first compound 0.1 µM
[3] = second compound 0.1 µM, first compound 0.316 µM
[4] = second compound 0.1 µM, first compound 1 µM
[5] = second compound 0.1 µM, first compound 3.16 µM
[6] = second compound 0.1 µM, first compound 10 µM
[7] = second compound 0.316 µM, first compound 0.0316 µM
[8] = second compound 0.316 µM, first compound 0.1 µM
[9] = second compound 0.316 µM, first compound 0.316 µM
[10] = second compound 0.316 µM, first compound 1 µM
[11] = second compound 0.316 µM, first compound 3.16 µM
[12] = second compound 0.316 µM, first compound 10 µM
[13] = second compound 1 µM, first compound 0.0316 µM
[14] = second compound 1 µM, first compound 0.1 µM
[15] = second compound 1 µM, first compound 0.316 µM
[16] = second compound 1 µM, first compound 1 µM
[17] = second compound 1 µM, first compound 3.16 µM
[18] = second compound 1 µM, first compound 10 µM
[19] = second compound 3.16 µM, first compound 0.0316 µM
[20] = second compound 3.16 µM, first compound 0.1 µM
[21] = second compound 3.16 µM, first compound 0.316 µM
[22] = second compound 3.16 µM, first compound 1 µM
[23] = second compound 3.16 µM, first compound 3.16 µM
[24] = second compound 3.16 µM, first compound 10 µM
[25] = second compound 10 µM, first compound 0.0316 µM
[26] = second compound 10 µM, first compound 0.1 µM
[27] = second compound 10 µM, first compound 0.316 µM
[28] = second compound 10 µM, first compound 1 µM
[29] = second compound 10 µM, first compound 3.16 µM
[30] = second compound 10 µM, first compound 10 µM
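Note: spheroids exposed to agents for seven days before reading.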

CC1(C)CCC(CN2CCN(c3ccc(C(=O)NS(=O)(=O)c4ccc(NCC5CCOCC5)c([N+](=O)[O-])c4)c(Oc4cnc5[nH]ccc5c4)c3)CC2)=C(c2ccc(Cl)cc2)C1 + CC(CO)NC(=O)c1cc(-c2ccc(Cl)cc2)nn(-c2cnn(C)c2)c1=O
7.05 µM: IC50 (second compound 0.316 µM)
6.5 µM: IC50 (second compound 10 µM)
inactive: viability, T/C [1] 99.8% | viability, T/C [2] 89.7% | viability, T/C [3] 97.5% | viability, T/C [4] 102% | viability, T/C [5] 108% | viability, T/C [6] 25.3% | viability, T/C [7] 94.5% | viability, T/C [8] 91.2% | viability, T/C [9] 91.1% | viability, T/C [10] 90.7% | viability, T/C [11] 109% | viability, T/C [12] 30.4% | viability, T/C [13] 97.4% | viability, T/C [14] 96.5% | viability, T/C [15] 90.7% | viability, T/C [16] 104% | viability, T/C [17] 103% | viability, T/C [18] 25.5% | viability, T/C [19] 97.5% | viability, T/C [20] 92.1% | viability, T/C [21] 94.5% | viability, T/C [22] 106% | viability, T/C [23] 96.8% | viability, T/C [24] 23.8% | viability, T/C [25] 79.2% | viability, T/C [26] 89.5% | viability, T/C [27] 86.8% | viability, T/C [28] 90.9% | viability, T/C [29] 92.9% | viability, T/C [30] 27.4%
6.62 µM: IC50 (second compound 3.16 µM)
6.78 µM: IC50 (second compound 1 µM)
6.82 µM: IC50 (second compound 0.1 µM)

COc1cc(Nc2ncc3c(n2)-c2ccc(Cl)cc2C(c2c(F)cccc2OC)=NC3)ccc1C(=O)O + CC(CO)NC(=O)c1cc(-c2ccc(Cl)cc2)nn(-c2cnn(C)c2)c1=O
> 10 µM: IC50 (second compound 0.1 µM) | IC50 (second compound 0.316 µM) | IC50 (second compound 1 µM) | IC50 (second compound 3.16 µM) | IC50 (second compound 10 µM)
inactive: viability, T/C [1] 75.4% | viability, T/C [2] 74.5% | viability, T/C [3] 81% | viability, T/C [4] 91.4% | viability, T/C [5] 84.6% | viability, T/C [6] 82.9% | viability, T/C [7] 75.6% | viability, T/C [8] 73.6% | viability, T/C [9] 86.3% | viability, T/C [10] 77.2% | viability, T/C [11] 62.8% | viability, T/C [12] 94% | viability, T/C [13] 78.7% | viability, T/C [14] 76.9% | viability, T/C [15] 96% | viability, T/C [16] 72.5% | viability, T/C [17] 87.7% | viability, T/C [18] 74% | viability, T/C [19] 57.9% | viability, T/C [20] 67.4% | viability, T/C [21] 86.3% | viability, T/C [22] 89.1% | viability, T/C [23] 84.7% | viability, T/C [24] 84.9% | viability, T/C [25] 58.8% | viability, T/C [26] 62.8% | viability, T/C [27] 73.8% | viability, T/C [28] 65.4% | viability, T/C [29] 57.9% | viability, T/C [30] 59.2%

Cn1ncnc1C1c2n[nH]c(=O)c3cc(F)cc(c23)NC1c1ccc(F)cc1 (stereo not given) + CC(CO)NC(=O)c1cc(-c2ccc(Cl)cc2)nn(-c2cnn(C)c2)c1=O
inactive: viability, T/C (second compound 0.1 µM, first compound 0.000316 µM) 97.1% | viability, T/C (second compound 0.1 µM, first compound 0.001 µM) 102% | viability, T/C (second compound 0.1 µM, first compound 0.00316 µM) 101% | viability, T/C (second compound 0.1 µM, first compound 0.01 µM) 106% | viability, T/C [1] 86.7% | viability, T/C [2] 104% | viability, T/C (second compound 0.316 µM, first compound 0.000316 µM) 90.6% | viability, T/C (second compound 0.316 µM, first compound 0.001 µM) 104% | viability, T/C (second compound 0.316 µM, first compound 0.00316 µM) 88.6% | viability, T/C (second compound 0.316 µM, first compound 0.01 µM) 92.6% | viability, T/C [7] 108% | viability, T/C [8] 87.5% | viability, T/C (second compound 1 µM, first compound 0.000316 µM) 93.6% | viability, T/C (second compound 1 µM, first compound 0.001 µM) 103% | viability, T/C (second compound 1 µM, first compound 0.00316 µM) 92.2% | viability, T/C (second compound 1 µM, first compound 0.01 µM) 109% | viability, T/C [13] 77.6% | viability, T/C [14] 101% | viability, T/C (second compound 3.16 µM, first compound 0.000316 µM) 97% | viability, T/C (second compound 3.16 µM, first compound 0.001 µM) 103% | viability, T/C (second compound 3.16 µM, first compound 0.00316 µM) 87.9% | viability, T/C (second compound 3.16 µM, first compound 0.01 µM) 98.9% | viability, T/C [19] 91.2% | viability, T/C [20] 87.6% | viability, T/C (second compound 10 µM, first compound 0.000316 µM) 83.2% | viability, T/C (second compound 10 µM, first compound 0.001 µM) 80.8% | viability, T/C (second compound 10 µM, first compound 0.00316 µM) 90.2% | viability, T/C (second compound 10 µM, first compound 0.01 µM) 83% | viability, T/C [25] 87% | viability, T/C [26] 78.7%
> 0.1 µM: IC50 (second compound 0.1 µM) | IC50 (second compound 0.316 µM) | IC50 (second compound 1 µM) | IC50 (second compound 3.16 µM) | IC50 (second compound 10 µM)

NS(=O)(=O)OCC1CC(n2ccc3c(NC4CCc5ccccc54)ncnc32)CC1O (stereo not given) + CC(CO)NC(=O)c1cc(-c2ccc(Cl)cc2)nn(-c2cnn(C)c2)c1=O
0.194 µM: IC50 (second compound 3.16 µM)
0.196 µM: IC50 (second compound 0.316 µM)
active: viability, T/C [4] 6.95% | viability, T/C [5] 3.58% | viability, T/C [6] 2.89% | viability, T/C [10] 4.48% | viability, T/C [11] 2.85% | viability, T/C [12] 1.79% | viability, T/C [16] 7.56% | viability, T/C [17] 2.89% | viability, T/C [18] 2.21% | viability, T/C [22] 7.17% | viability, T/C [23] 4.49% | viability, T/C [24] 4.6% | viability, T/C [28] 4.19% | viability, T/C [29] 4.04% | viability, T/C [30] 2.93%
0.112 µM: IC50 (second compound 10 µM)
inactive: viability, T/C [1] 100% | viability, T/C [2] 81.9% | viability, T/C [3] 38.2% | viability, T/C [7] 101% | viability, T/C [8] 76.1% | viability, T/C [9] 32.2% | viability, T/C [13] 97.3% | viability, T/C [14] 83.6% | viability, T/C [15] 32.7% | viability, T/C [19] 97.8% | viability, T/C [20] 85.1% | viability, T/C [21] 23.9% | viability, T/C [25] 89.6% | viability, T/C [26] 54% | viability, T/C [27] 12.6%
0.229 µM: IC50 (second compound 0.1 µM)
0.214 µM: IC50 (second compound 1 µM)
